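Following 48 hours of exposure in 96-well plates, responses at five concentrations were used to interpolate endpoints linearly. GI50 is the concentration that inhibits growth by half.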 Calls of active or inactive are those of the source. Cut-off read from the data, not from the text of the source: active = GI50 up to about 1.1 µM and inactive = higher.

Among the test systems are IGROV-1; MOLT-4; SNB-75; CCRF-CEM; SW-620; MCF7; COLO 205; SK-MEL-2; OVCAR-8; MDA-MB-435; Hs-578T; DU-145; NCI/ADR-RES; SNB-19; HCT-15; SN12C; SK-MEL-28; CAKI-1; 786-0; NCI-H23.
Holding throughout (test): DTP human tumour cell line panel, 48 h

Broadly, the GI50 is the concentration that inhibits growth by half. As for `CCO/N=C\c1ccc2oc(-c3ccccc3)cc(=O)c2c1`, the GI50 was 0.24 µM (active) in the assay on IGROV-1; 0.121 µM (active) in the assay on MOLT-4; 0.219 µM (active) with SNB-75; 0.228 µM (active) with CCRF-CEM; 0.129 µM (active) in the assay on SW-620; 0.31 µM (active) with MCF7. In addition, the GI50 with COLO 205 is 0.0506 µM (active); in the assay with SK-MEL-2 it was 0.127 µM (active); in the assay with OVCAR-8, 0.465 µM (active); with MDA-MB-435, 0.0133 µM (active); in the assay with Hs-578T, 0.402 µM (active); in the assay on DU-145 it was 0.502 µM (active). Further, the GI50 in the assay on NCI/ADR-RES was 0.0501 µM (active); in the assay on SNB-19, 0.48 µM (active); with HCT-15 it was 0.0475 µM; with SN12C, 0.303 µM (active); in the assay on SK-MEL-28, 28.8 µM (inactive); with CAKI-1, 0.427 µM (active). Moreover, the GI50 was 0.501 µM (active) in the assay with 786-0 and 0.476 µM (active) with NCI-H23.

For `COc1cc2nc3c(=C(C#N)C#N)c4ccccc4n3c(=O)c2cc1OC`, the GI50 in the assay with IGROV-1 was > 100 µM (inactive); with MOLT-4 it was > 100 µM (inactive); with SNB-75, 41.6 µM (inactive); with CCRF-CEM it was 32.4 µM (inactive); in the assay with SW-620 it was > 100 µM (inactive); in the assay on MCF7, > 100 µM (inactive). In addition, the GI50 in the assay on COLO 205 is > 100 µM (inactive); in the assay with SK-MEL-2, > 100 µM (inactive); with OVCAR-8, > 100 µM (inactive); in the assay with MDA-MB-435, > 100 µM (inactive); in the assay on Hs-578T, 44.3 µM (inactive); with DU-145 it was > 100 µM (inactive). Further, the GI50 in the assay with NCI/ADR-RES is > 100 µM (inactive); in the assay on SNB-19 it was > 100 µM (inactive); in the assay with HCT-15, over 100 µM; in the assay with SN12C, > 100 µM (inactive); in the assay on CAKI-1, > 100 µM (inactive); with 786-0, > 100 µM (inactive). Also, in the assay with NCI-H23, the GI50 was > 100 µM (inactive).

`COc1cc(CNc2nc3cc(C(F)(F)F)ccc3nc2C(=O)O)cc(OC)c1OC`: the GI50 in the assay on MOLT-4 is 20.7 µM (inactive); in the assay with SNB-75 it was 19.9 µM (inactive); in the assay on SW-620, 31.6 µM (inactive); with MCF7, 20.1 µM (inactive); in the assay on COLO 205, 22.6 µM (inactive); in the assay with SK-MEL-2 it was 19.9 µM (inactive). Also, the GI50 in the assay with OVCAR-8 was 34.4 µM (inactive); in the assay with MDA-MB-435, 23.4 µM (inactive); with Hs-578T, 10.4 µM (inactive); in the assay with DU-145, 33.2 µM (inactive); with NCI/ADR-RES, 24.4 µM (inactive); with SNB-19, 21.6 µM (inactive). The 50% growth inhibitory concentration (GI50) in the assay with HCT-15 was 29.6 µM; in the assay with SN12C it was 15.4 µM (inactive); in the assay on SK-MEL-28, 22.5 µM (inactive); in the assay with CAKI-1 it was 25.3 µM (inactive); in the assay on 786-0, 19.3 µM (inactive); with NCI-H23, 33.8 µM (inactive).

As to `Cn1c(=O)[nH]n(-c2ccc3ccccc3c2)c1=O`, the GI50 in the assay with IGROV-1, in the assay on SNB-75, in the assay with CCRF-CEM, in the assay with SW-620, in the assay on MCF7 and with COLO 205 was > 100 µM (inactive) in each case. Moreover, the GI50 in the assay with SK-MEL-2, in the assay with OVCAR-8, with MDA-MB-435, with Hs-578T, in the assay with DU-145 and with NCI/ADR-RES was > 100 µM (inactive) in each case. For the same compound, the GI50 is > 100 µM (inactive) with SNB-19; over 100 µM in the assay on HCT-15; > 100 µM (inactive) in the assay with SN12C; > 100 µM (inactive) in the assay on SK-MEL-28; > 100 µM (inactive) in the assay with CAKI-1; > 100 µM (inactive) in the assay with 786-0. In addition, in the assay on NCI-H23, the GI50 is > 100 µM (inactive).

Take `COc1cc2nc(-c3cccs3)nc(Cl)c2cc1OC`: the GI50 in the assay with IGROV-1 was > 100 µM (inactive); with SNB-75, > 100 µM (inactive); with SW-620, > 100 µM (inactive); in the assay with MCF7, 23.4 µM (inactive); with COLO 205, > 100 µM (inactive); in the assay with SK-MEL-2, > 100 µM (inactive). Further, the GI50 with OVCAR-8, in the assay with MDA-MB-435, in the assay with Hs-578T, in the assay with DU-145, with NCI/ADR-RES and with SNB-19 was > 100 µM (inactive) each time. The GI50 in the assay on HCT-15 is over 100 µM; with SN12C it was > 100 µM (inactive); with SK-MEL-28, > 100 µM (inactive); with CAKI-1, 80.2 µM (inactive); with 786-0, > 100 µM (inactive); with NCI-H23, > 100 µM (inactive).

As for `CC(C)=CCC[C@@H](C)/C=C/C=C(\C)C(=O)CC[C@@H]1CC[N@+]2(C)CCCC[C@H]12`, the GI50 with IGROV-1 was 55.1 µM (inactive); with MOLT-4 it was > 100 µM (inactive); in the assay on SNB-75 it was 49.2 µM (inactive); with SW-620 it was > 100 µM (inactive); in the assay with MCF7, > 100 µM (inactive); in the assay with COLO 205, 81.3 µM (inactive). Moreover, the GI50 is > 100 µM (inactive) in the assay on SK-MEL-2; > 100 µM (inactive) in the assay with OVCAR-8; > 100 µM (inactive) in the assay on MDA-MB-435; 96.4 µM (inactive) in the assay with Hs-578T; > 100 µM (inactive) in the assay with DU-145; > 100 µM (inactive) with NCI/ADR-RES. Besides, the GI50 in the assay on SNB-19 was 31.3 µM (inactive); in the assay on HCT-15, over 100 µM; in the assay on SN12C, > 100 µM (inactive); with SK-MEL-28, > 100 µM (inactive); in the assay with CAKI-1 it was > 100 µM (inactive); in the assay on 786-0 it was > 100 µM (inactive). Besides, the GI50 in the assay with NCI-H23 was > 100 µM (inactive).

Consider `COc1ccc(C2CCc3c(cnc4nc(N)nc(N)c34)C2)cc1` (configuration not stated), for which the concentration for 50% growth inhibition (GI50) with IGROV-1 was 1.09 µM (active); in the assay on MOLT-4 it was 9.48 µM (inactive); with SNB-75 it was 10.3 µM (inactive); with SW-620, 5.25 µM (inactive); in the assay with MCF7 it was 15.8 µM (inactive); in the assay on COLO 205 it was > 100 µM (inactive). The GI50 in the assay with SK-MEL-2 is 47.4 µM (inactive); with OVCAR-8 it was 5.4 µM (inactive); with MDA-MB-435 it was 4.53 µM (inactive); in the assay on Hs-578T it was 40.8 µM (inactive); in the assay on DU-145, 37.4 µM (inactive); in the assay on NCI/ADR-RES, > 100 µM (inactive). For the same compound, the GI50 with SNB-19 was 33.7 µM (inactive); with HCT-15, 5.15 µM; in the assay on SN12C it was 7.16 µM (inactive); in the assay with SK-MEL-28, 96.4 µM (inactive); with CAKI-1, > 100 µM (inactive); in the assay with 786-0 it was 3.7 µM (inactive).

As for `COC(=O)c1ccccc1NC(=S)NN(C)C`, the GI50 in the assay on IGROV-1 is > 100 µM (inactive); in the assay on MOLT-4, > 100 µM (inactive); in the assay on SNB-75, 28.6 µM (inactive); in the assay on CCRF-CEM, > 100 µM (inactive); with SW-620, > 100 µM (inactive); in the assay on MCF7, > 100 µM (inactive). Also, the GI50 in the assay with COLO 205, with SK-MEL-2, with OVCAR-8, with MDA-MB-435, in the assay with Hs-578T and with DU-145 was > 100 µM (inactive) throughout. Further, the GI50 in the assay on NCI/ADR-RES was > 100 µM (inactive); in the assay with SNB-19 it was > 100 µM (inactive); in the assay on HCT-15 it was over 100 µM; in the assay with SK-MEL-28, > 100 µM (inactive); in the assay on CAKI-1 it was > 100 µM (inactive); in the assay with 786-0, > 100 µM (inactive). For the same compound, the GI50 in the assay on NCI-H23 is > 100 µM (inactive).

Take `CCCCCCc1nn2c(-c3ccncc3)nnc2s1`: the GI50 in the assay on IGROV-1, in the assay with MOLT-4, in the assay with CCRF-CEM, with SW-620, with MCF7 and in the assay on COLO 205 was > 10 µM (inactive) throughout. Also, the GI50 with SK-MEL-2, with OVCAR-8, in the assay with MDA-MB-435, in the assay with Hs-578T, in the assay on DU-145 and in the assay with NCI/ADR-RES was > 10 µM (inactive) in each case. Also, the GI50 with SNB-19 is > 10 µM (inactive); in the assay on HCT-15, over 10 µM; with SN12C, > 10 µM (inactive); in the assay with SK-MEL-28, > 10 µM (inactive); in the assay on CAKI-1, > 10 µM (inactive); in the assay with 786-0, > 10 µM (inactive). Also, the GI50 in the assay with NCI-H23 is > 10 µM (inactive).

Consider `O=S(=O)(O)c1ccc2cccc(/N=N\c3c(O)ccc4ccccc34)c2c1`, for which the GI50 in the assay on IGROV-1, with MOLT-4, in the assay with SNB-75, in the assay on CCRF-CEM, with SW-620 and in the assay with MCF7 was > 100 µM (inactive) in each case. Also, the GI50 in the assay with COLO 205, in the assay on SK-MEL-2, with OVCAR-8, with MDA-MB-435, in the assay on Hs-578T and with DU-145 was > 100 µM (inactive) each time. Also, the GI50 with NCI/ADR-RES was > 100 µM (inactive); in the assay with SNB-19, > 100 µM (inactive); in the assay on HCT-15 it was over 100 µM; in the assay on SN12C, > 100 µM (inactive); in the assay with CAKI-1, > 100 µM (inactive); in the assay on 786-0, > 100 µM (inactive). Further, in the assay with NCI-H23, the GI50 was > 100 µM (inactive).

As to `Clc1ccc(C(Cc2cccc(Cl)c2)c2c(Cl)nc(N3CCNCC3)nc2Cl)cc1` (configuration not stated), the GI50 with IGROV-1 is 69.2 µM (inactive); with MOLT-4, 12.2 µM (inactive); in the assay on SNB-75, 13.3 µM (inactive); in the assay with CCRF-CEM it was 15.3 µM (inactive); in the assay with SW-620, 16.5 µM (inactive); in the assay on MCF7 it was 10.8 µM (inactive). The GI50 was 2.9 µM (inactive) in the assay with COLO 205; 21.6 µM (inactive) with SK-MEL-2; 19.1 µM (inactive) in the assay on OVCAR-8; 16.7 µM (inactive) in the assay on MDA-MB-435; 19.8 µM (inactive) in the assay on Hs-578T; 19.7 µM (inactive) in the assay with DU-145. Moreover, the GI50 in the assay on NCI/ADR-RES was 18 µM (inactive); in the assay on SNB-19 it was 16.9 µM (inactive); with HCT-15, 13.6 µM; in the assay on SK-MEL-28 it was 19.5 µM (inactive); in the assay with CAKI-1 it was 12.1 µM (inactive); with 786-0, 14.4 µM (inactive). In addition, the GI50 with NCI-H23 was 19 µM (inactive).

These data come from ChEMBL document CHEMBL1201862, “PubChem BioAssay data set” (2004).
